Source: publication PMC5335257, “Promoting in vivo remyelination with small molecules: a neuroreparative pharmacological treatment for Multiple Sclerosis” (Scientific Reports, 2017)

Assays:
[1] = test system: OPCs from P0 mice; assay: Survival assay (Casp3+-A2B5+ cells); type: cell-based, mouse; details: murine P0 OPCs, 1 μM, 2 DIV
Protocol: We isolated OPCs, as previously described. Briefly, a stock papain solution was prepared containing ([…]; Worthington Biochemical), L-cysteine (0.2 mg/ml; Sigma), and EDTA (0.2 mg/ml; Sigma) in Hank’s Balanced Salt Solution (HBSS; Invitrogen) without Ca^2+ and Mg[2]. Then, the cerebral cortices of P0 CD1 mice were dissected out and placed for 5 minutes at 37 °C in a medium containing the stock papain solution in HBSS with Ca^2+ and Mg^2+ (1:10; Invitrogen) in order to easily remove the meninges. Once meninges and choroid plexus were removed, the tissue was enzymatically dissociated for 5 minutes at 37 °C again by using the papain solution (1:10 in HBSS without Ca^2+ and Mg^2+) and the digested tissue was then filtered through a 100 μm nylon mesh strainer (BD Biosciences) and seeded on poly-L-ornithine-coated (Sigma) 75 cm^2 flasks in DMEM medium (Invitrogen) containing 10% foetal bovine serum (FBS; BioWhittaker) and 100 U/mL penicillin, 0.1 mg/mL streptomycin and 0.25 μg/ml Amphotericin B antibiotic antimycotic solution (Sigma). Cultures were maintained at 37 °C and 5% CO2, and the medium was changed every 3 days. […] The resulting enriched oligodendrocyte progenitor cell suspension was counted and seeded. […]

[2] = test system: spinal cord injury models; design: method as in PMID 21297958, PMID 23077723; details: spinal cord injury models (as well as EAE); cited from earlier work
[3] = test system: PDE7; design: method as in PMID 24437940; details: read-out: PDE7 inhibition IC50; cited from earlier work
[4] = test system: OPCs isolated from P0 mice; assay: Differentiation assay, murine OPCs; type: cell-based, mouse
Protocol: We isolated OPCs, as previously described. Briefly, a stock papain solution was prepared containing ([…]; Worthington Biochemical), L-cysteine (0.2 mg/ml; Sigma), and EDTA (0.2 mg/ml; Sigma) in Hank’s Balanced Salt Solution (HBSS; Invitrogen) without Ca^2+ and Mg[2]. Then, the cerebral cortices of P0 CD1 mice were dissected out and placed for 5 minutes at 37 °C in a medium containing the stock papain solution in HBSS with Ca^2+ and Mg^2+ (1:10; Invitrogen) in order to easily remove the meninges. Once meninges and choroid plexus were removed, the tissue was enzymatically dissociated for 5 minutes at 37 °C again by using the papain solution (1:10 in HBSS without Ca^2+ and Mg^2+) and the digested tissue was then filtered through a 100 μm nylon mesh strainer (BD Biosciences) and seeded on poly-L-ornithine-coated (Sigma) 75 cm^2 flasks in DMEM medium (Invitrogen) containing 10% foetal bovine serum (FBS; BioWhittaker) and 100 U/mL penicillin, 0.1 mg/mL streptomycin and 0.25 μg/ml Amphotericin B antibiotic antimycotic solution (Sigma). Cultures were maintained at 37 °C and 5% CO2, and the medium was changed every 3 days. When the cultures reached confluence, they were shaken overnight at 250 rpm and at 37 °C in order to detach the OPCs located on the top of the confluent astrocyte monolayer and the medium was then filtered through a 40μm nylon mesh strainer (BDBiosciences) and centrifuged at 900 rpm. Cells were seeded twice (45 minutes each) in bacterial grade Petri dishes (Sterilin) to remove microglial cells. The resulting enriched oligodendrocyte progenitor cell suspension was counted and seeded.
Purified OPCs were placed on coverslips coated with poly-L-lysine and laminin in 24-well tissue culture dishes at a density of 2 × 10^4 cells/well. To promote differentiation, the cells were maintained in the differentiation medium (described above) and PDE7-GSK3 or GSK3 inhibitors (VP3.15 or TDZD8; 1 μM) were added to the culture medium. Different controls were used for the dual or single inhibitors due to the active substance being dissolved in differing amounts of DMSO. After 5, 7 and 10 DIV the cells were fixed with 4% PFA for further immunocytochemical analysis. Anti-CNPase antibodies (1:200;Covance; Cat#SMI-91R), anti-MBP antibodies (1:200; Serotec; Cat#MCA4095) for detecting oligodendrocytes and anti-Olig2 antibodies (1:250; Millipore; Cat#AB9610) as a marker for all oligodendroglial stages were used. Ten random fluorescence digital images were taken in each coverslip with a DFC480 FX digital camera (Leica) coupled to a Leica DM5000 B microscope for quantification. Data were expressed as a mean ratio of differentiated oligodendrocytes (CNPase^+-Olig2^+ double positive cells) with respect to total Olig2^+ cells ± SEM or percentage of CNPase^+ cells respect to control ± SEM, in at least three independent experiments, except with human samples (two independent experiments).

[5] = murine P0 OPCs, 1 μM, 5, 7 and 10 DIV

**Q.** With `c1ccc(-c2n/c(=N/CCN3CCOCC3)sn2-c2ccccc2)cc1` [VP3.15] as the compound, how does the “OPC survival (Casp3+-A2B5+ apoptotic cells)” value [1] read?
**A.** without affecting

**Q.** And the immunomodulatory effect [2]?
**A.** immunomodulatory effect

**Q.** What about the IC50 [3] of the same compound?
**A.** 1590 nM

**Q.** What about the “number of mature oligodendrocytes (CNPase+-Olig2+ cells) vs control” value [4, 5] of the same compound?
**A.** significant increase

**Q.** What about the “number of mature oligodendrocytes (MBP+-Olig2+ cells) vs control” value [4, 5] of the same compound?
**A.** significant increase

**Q.** And the “number of primary cytoplasmic processes” value ([4]; murine mature oligodendrocytes, control 4.9 ± 0.35, p = 0.64)?
**A.** 4.7 ± 0.31

**Q.** And the “number of cytoplasmic subprocesses” value ([4]; murine mature oligodendrocytes, control 8.588 ± 0.875, p = 0.62)?
**A.** 8.111 ± 0.970
